Like-named read-outs stand apart in the source and are kept apart here.
Columns and labels:
[1] = system: CD4 T lymphocytes infected with HIV-1 lai; assay: Annexin V staining (cell mortality/apoptosis) of HIV-1 infected CD4 T lymphocytes; assay type: cell-based; details: 20 µM every two days; day 5 post-infection
HIV-1 lai = assay: Intracellular P24 capsid protein staining by flow cytometry in HIV-1 infected CD4 T lymphocytes; assay type: cell-based; details: 20 µM added every two days, staining day 4, 5, 6 post-infection
caspases = details: cited from earlier work
SIV = details: cited from earlier work
HIV = details: WO2009/092897; cited from earlier work
SARS-CoV-2 [2] = assay type: cell-based
SARS-CoV-2 [3] = assay: microbe, parasite or virus in culture; assay type: cell-based
SARS-CoV-2 [4] = assay type: cell-based; remark: listed apart in the source

Q: What does the source list for `CC(C)[C@H](NC(=O)c1ccc2ccccc2n1)C(=O)N[C@@H](CC(=O)O)C(=O)COc1c(F)cccc1F` [QVD-Unmethylated]?
A: cell mortality (Annexin V surface staining) [1]: The results were the same; antiviral effect on HIV-1 replication (intracellular P24 capsid protein) (HIV-1 lai): same antiviral effect

Q: Which results are given for `CC(C)C(NC(=O)c1ccc2ccccc2n1)C(=O)NC(CC(=O)O)C(=O)COc1c(F)cccc1F` (stereo not shown) [Q-VD-OPh]?
A: caspase inhibitory activity (caspases): broad caspase inhibitor; AIDS disease progression and control of viral replication (SIV; SIV-infected rhesus macaques, five injections during primary infection): prevents AIDS disease progression; cancer development after treatment (SIV; six monkeys, four or five years after treatment): none of the animals have developed a cancer; inhibition of viral replication in HIV-infected cells (HIV): inhibition of viral replication

Q: Which caspase inhibitory activity (caspases) does the source give for `CC(C)C(NC(=O)c1ccc2ccccc2n1)C(=O)NC(CCC(=O)O)C(=O)COc1c(F)cccc1F` (stereo not shown) [Q-VE-OPh] here?
A: does not show any caspase inhibitory activity

Q: What about the “cell mortality (Annexin V surface staining)” value [1] of the same compound?
A: much less mortality than the infected cells

Q: And the “relative expression of the Nucleocapsid (N) and NSP6 genes in supernatants of infected cells” value (SARS-CoV-2 [2])?
A: reduce significantly

Q: What about the “toxicity on Vero E6 cells” value (Vero E6 cells; 100 µM added for three days) of the same compound?
A: without any toxicity

Q: And the “toxicity on Vero E6 cells” value (Vero E6 cells; 25, 50, 100 µM, infected (MOI 0.05) or not, 72 h post-infection)?
A: no toxicity effect

Q: What about the “effect on the entry of the virus into the cell” value (SARS-CoV-2 [3]) of the same compound?
A: no significant effect

Q: And the inhibition at 50 µM (SARS-CoV-2 [3]; Severe acute respiratory syndrome coronavirus 2, Vero C1008, 72 h, read-out: inhibition of SARS-CoV-2 viral replication)?
A: ~99%

Q: And the inhibition at 25 µM (SARS-CoV-2 [3]; Severe acute respiratory syndrome coronavirus 2, Vero C1008, 72 h, 25 µM, read-out: inhibition of SARS-CoV-2 viral replication)?
A: ~70%

Q: And the “antiviral effect on HIV-1 replication (intracellular P24 capsid protein)” value (from here on “antiviral effect on HIV-1 replication”) (HIV-1 lai)?
A: same antiviral effect as the comparative Q-VD-OPh molecule

Q: What about the “expression of the viral Spike and Nucleocapsid proteins within infected cells” value (SARS-CoV-2 [4]) of the same compound?
A: reduce significantly

Q: With `CCO[C@@H]1OC(=O)C[C@@H]1NC(=O)[C@@H]1CCCN1C(=O)[C@@H](NC(=O)c1ccc(N)c(Cl)c1)C(C)(C)C` [VX-765] as the compound, how does the “antiviral effect on HIV-1 replication” value (HIV-1 lai) read?
A: no effect on the viral replication

Q: For `COC(=O)C[C@H](NC(=O)[C@@H](NC(=O)c1ccc2ccccc2n1)C(C)C)C(=O)COc1c(F)cccc1F` [QVD-methylated], which “cell mortality (Annexin V surface staining)” value [1] is on record?
A: contrary

Q: And the “antiviral effect on HIV-1 replication” value (HIV-1 lai)?
A: same antiviral effect
